# Reference: US6436918B1, “Steroid sulfatase inhibitors and methods for making and using the same” (Duquesne University of the Holy Ghost, priority 1997, dated 2002)
# Like-named read-outs stand apart in the source and are kept apart here.
# Target: T1, recombinant human estrone sulfatase (Homo sapiens, UniProt P08842)
# T1 construct: made in house; host or cells: Chinese Hamster Ovary (CHO) cells
# T1 sequence (P08842 22-583): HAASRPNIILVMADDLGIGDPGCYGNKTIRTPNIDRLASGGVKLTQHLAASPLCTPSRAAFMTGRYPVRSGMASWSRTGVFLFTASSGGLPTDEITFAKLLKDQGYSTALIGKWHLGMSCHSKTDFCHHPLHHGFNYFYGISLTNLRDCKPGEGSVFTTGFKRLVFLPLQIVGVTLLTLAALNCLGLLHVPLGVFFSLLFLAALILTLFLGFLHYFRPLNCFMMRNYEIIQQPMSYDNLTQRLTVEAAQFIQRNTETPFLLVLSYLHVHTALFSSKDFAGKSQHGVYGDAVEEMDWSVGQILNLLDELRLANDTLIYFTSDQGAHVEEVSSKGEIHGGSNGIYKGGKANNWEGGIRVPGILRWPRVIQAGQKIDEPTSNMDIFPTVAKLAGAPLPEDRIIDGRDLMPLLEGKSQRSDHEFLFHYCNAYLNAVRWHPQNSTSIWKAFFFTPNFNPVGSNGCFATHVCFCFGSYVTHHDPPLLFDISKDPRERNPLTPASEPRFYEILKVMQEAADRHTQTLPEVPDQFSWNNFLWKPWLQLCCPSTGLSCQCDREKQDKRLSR
# Assay: in vitro conversion assay: inhibition of conversion of 3H-estrone sulfate to 3H-estrone by estrone sulfatase
# Type: biochemical
# Protocol: The compounds prepared according to the methods of the above Examples were tested for biological activity in inhibiting sulfatase activity using an in vitro conversion assay procedure. As will be appreciated by those skilled in the art, this assay is based on inhibition of the conversion of ^3H-estrone sulfate to ^3H-estrone by the enzyme estrone sulfatase. The final volume of the enzyme assay was 0.15 ml. [6.7-^3H] estrone sulfate (final concentration 3.3 nmole/L; 300,000 dpm/tube); an inhibitor at various concentrations in DMSO and recombinant human estrone sulfatase (33 ng/tube) in phosphate buffered saline, containing 0.25 M sucrose and 0.04 M nicotinamide, pH 7, were added to a 1.5 ml microtube. Recombinant human estrone sulfatase was partially purified from Chinese Hamster Ovary (CHO) cells in which human estrone sulfatase cDNA was transfected. The assay began by the addition of the substrate estrone sulfate. After 60 minutes of incubation at 37° C., 0.5 ml of toluene were added to quench the assay. Control samples with no inhibitor were incubated simultaneously. Blank samples were obtained by incubating without estrone sulfatase. The quenched samples were vortexed for 30 seconds and centrifuged (9,000 rpm for 5 minutes). Two hundred and fifty microliters of toluene were obtained from each quenched sample to determine the amount of product formation. Product formation for samples containing an inhibitor was compared to that of control samples (without inhibitors) run simultaneously. This was reported as percent inhibition of control sample which equals
# 100× Product formation for sample containing inhibitor Product formation for sample with no inhibitor (control)
# Each concentration was tested in duplicate in three separate experiments.
# [1] = Table 3 (Example 8; compounds 7, 29d, 29h, 29m), same in vitro conversion assay, read-out: IC50
SMILES,IC50 [1] [nM],IC50 [nM]
"CCCNC(=O)[C@H]1CC[C@H]2[C@@H]3CCc4cc(OS(N)(=O)=O)ccc4[C@H]3CC[C@]12C [Compound 7, 17β-(N-Propylcarbamoyl)estra-1,3,5(10)-trien-3-yl sulfamate]",19,–
"CC(C)CNC(=O)[C@H]1CC[C@H]2[C@@H]3CCc4cc(OS(N)(=O)=O)ccc4[C@H]3CC[C@]12C [Compound 29d, 17β-(N-Isobutylcarbamoyl)estra-1,3,5(10)-trien-3-yl sulfamate]",–,6.5
"CC(C)NC(=O)[C@H]1CC[C@H]2[C@@H]3CCc4cc(OS(N)(=O)=O)ccc4[C@H]3CC[C@]12C [Compound 29h, 17β-(N-Isopropylcarbamnoyl)estra-1,3,5(10)-trien-3-yl sulfamate]",17,–
"CCCN(C)C(=O)[C@H]1CC[C@H]2[C@@H]3CCc4cc(OS(N)(=O)=O)ccc4[C@H]3CC[C@]12C [Compound 29m, 17β-(N-methyl-N-Propylcarbamoyl)estra-1,3,5 (10)-trien-3-yl sulfamate]",–,5.5
